Measurements as given in patent publication US9855320B2, “Angiogenin for treatment of glaucoma” (CHUNG-ANG UNIVERSITY INDUSTRY-ACADEMIC COOPERATION …, priority 2011, dated 2018).

Experiments:
normal white rat = assay: Intraocular pressure change due to instillation in normal white rats (day-time and night-time); assay type: in vivo
Protocol: White rats were grouped as a physiological saline solution instillation group, an angiogenin (recombinant human angiogenin, R&D systems, USA) 50 μg/ml instillation group, an angiogenin fragment (angiogenin 108-122, SEQ ID NO: 1, BACHEM, USA) instillation group, and a latanoprost 50 μg/ml instillation group, and each group consisted of 6 rats, that is, 12 eyes. Instillation test was repeatedly performed on normal rats and glaucoma model rats. Ophthalmic agent was administered at 8 AM and 8 PM in an amount of 4 μl to compare day-time effects and night-time effects, and 1, 3, 6, 9, 12, and 24 hours after the instillation, intraocular pressure was measured.

angiogenin = assay: Angiogenin immunohistochemical staining of glaucoma rat model anterior chamber angle after instillation; assay type: in vivo; conditions: episcleral venous ablation glaucoma model, 1 hour after instillation, compared to before angiogenin instillation
Protocol: Eyeballs donated for research purposes were pre-fixed in a 4% paraformaldehyde solution for 6 hours, and then, a tissue thereof was cut to be perpendicular to cornea, including cornea, limbus, and conjunctival, and the obtained tissue was fixed at room temperature for 6 hours. The fixed tissue was rapidly frozen and then a frozen tissue section was prepared and attached to slide glass. Thereafter, for immunohistochemical staining, the tissue section was washed with distilled water for 10 minutes and then, treated with 1% hydrogen peroxide solution for 20 minutes and then, washed three times with 0.02M phosphate buffer solution and treated with normal horse serum for 30 minutes. Then, primary antibody of angiogenin and Indoleamine 2,3-dioxygenase (IDO) were applied thereto for 48 hours, and then the result tissue were washed with PBS, and then, secondary antibody was applied thereto at room temperature for 1 hour. When immunohistochemical staining was completed, the tissue was sealed by poly-mount and identified by optical microscopy. […]

[1] = test system: Schlemm's canal peripheral tissue in anterior chamber angle; assay: H&E staining of Schlemm's canal peripheral tissue in anterior chamber angle of glaucoma model after instillation; assay type: in vivo, rat; conditions: after instillation compared to before instillation
retinal ganglion cell = assay: Retinal ganglion cell density on H-E staining, chronic intraocular pressure increase model; assay type: in vivo, rat; conditions: 8 weeks after the injury
Protocol: 0.05 cc/50 g of Tiletimine and Zolazepam-mixed medicament (Zoletil) and Xylazine (Rompum) were mixed at a ratio of 1:1 and then administered to 20 rats by intramuscular injection, thereby anesthetizing the rats. A limbus periphery was divided into four portions, each of which was then subjected to 2 mm dissection at an interval of 90 degrees, and then, two radial conjunctival excisions were performed on upper dissection periphery. […] After surgical isolation of vein, the vein was lifted up by using 3 mm-width spatula to be spaced apart from the peripheral tissue, and then, was subjected to electric ablation while being careful for the peripheral tissue not to have any thermal damage or any mechanical damage due to contact. Intraocular pressure was consecutively measured three or more times by using Tonopen (Solan, Fla., USA), and only reliable intraocular pressure values within 5 percentile were recorded. […] Before the operation, and 3 days, and 1, 2, 4, and 8 weeks after the operation, intraocular pressure was measured, and the rats were sacrificed to extract eyes therefrom, which were then subjected to tissue examination and immunechemical staining with respect to Brn-3a and CD11b, and a reverse transcription polymerase chain reaction was used to measure CD11b value in retinal tissue. […]

[2] = test system: nitric oxide (NO) concentration in aqueous humor; assay: NO concentration in aqueous humor after instillation (Griess assay); assay type: in vivo, rat; conditions: 1 hour after the initial instillation, 50 μg/ml, day-time and night-time test, rank among instillation groups
Protocol: Normal rat models were divided into 4 groups, each group consisting of 6 rats, that is, 12 eyes, and at 8 AM and 8 PM, each group was instilled with angiogenin 50 μg/ml, angiogenin fragment 50 μg/ml, and latanoprost 50 μg/ml, and 1, 3, and 6 hours after instillation, 15 to 20 μl of aqueous humor was extracted from two rats, that is, 4 eyes for each group. For the extraction of aqueous humor, first, rats were anesthetized, and then, corneal dissection was performed in a direction from at 9 o'clock outside each eye toward microkeratome, and then, a capillary tube was brought into contact through a dissection wound to absorb aqueous humor, which was then moved to an eppendroff tube and frozen-preserved at a temperature of −70 degrees. Thereafter, nitric oxide (NO) concentration in aqueous humor was measured by Griess assay (nitric oxide colorimetric assay kit, Biovision, USA). The aqueous humor was diluted 10 times and then mixed with the same amount of griess solution and reacted together for 10 minutes. The reaction product was moved onto a well plate and then, absorbance of nitrate, which is a NO formation reactant, was measured by using spectrophotometer at a wavelength of 540 nm and compared with a reference value to quantify the nitrate.

Substance: angiogenin: recombinant human angiogenin (R&D systems); 14.4 kDa single chain protein of 123 amino acids, a ribonuclease inducing angiogenesis
- time after instillation up to which significant intraocular pressure reduction was maintained (normal white rat; day-time instillation): up to 9 hours
- time after instillation at which average intraocular pressure began to significantly decrease (normal white rat; day-time instillation, 50 μg/ml): 1 h
- intraocular pressure reduction compared to the pre-instillation intraocular pressure (normal white rat; day-time instillation, 50 μg/ml 4 μl, maintained up to 9 hours after the instillation): −1.8±0.4 mmHg
- time after instillation up to which significant intraocular pressure reduction was maintained (normal white rat; night-time instillation): up to 24 hours
- intraocular pressure reduction compared to that before instillation (normal white rat; night-time instillation, 50 μg/ml, maintained up to 24 hours after the instillation): −1.5±0.4 mmHg
- intraocular pressure reduction (in words) (normal white rat; night-time instillation, 1 hour after the instillation): significant intraocular pressure reduction
- angiogenin stain in anterior chamber angle / at trabecular meshwork (angiogenin): intensified
- diameter and intercellular interval of Schlemm's canal [1]: increased
- density of retinal ganglion cell (retinal ganglion cell): does not change
- NO concentration increase in aqueous humor [2]: greatest NO concentration increase
